A short description of data set [1]: Particle size stability of micronised ADA in capsules on storage. It is filed as physicochemical. As for the experimental part: After having manufactured micronised ADA under the conditions of examples 1 and 2, a size distribution of the ADA crystals was obtained, as illustrated on the appended FIG. 2.
Thereafter the active substance was incorporated into capsules which have been stored for 11 months within a refrigerator at 8° C., in order to determine the stability of ADA according to the standards (International Harmonisation Conference: ICH).
The size of the ADA particles has been determined again at this moment as well as after 3 additional months within a stove at 25° C./60% humidity.

The next data set relates to rats. Put plainly: 28-day oral toxicity in rats. The class given is in vivo. To be noted: daily 900, 150 and 25 mg/kg for 28 days, suspension in carboxymethylcellulose. The procedure:
(§1) Tests were carried out on rats to which daily doses of 900, 150 and 25 mg of ADA according to the invention/kg of body weight were administered orally for 28 days. The ADA was in the form of a micronised powder according to the invention in suspension in carboxymethylcellulose. Likewise an identical test was carried out on dogs at daily doses for 28 days of 400, 100 and 25 mg of ADA according to the invention/kg of body weight.

Data set [2] in a line: Comparative examination of bioavailability (biurea in blood after force feeding). It is filed as in vivo. To be noted: mice, force feeding, 10, 5 and 1.25 mg/kg, 30 minutes after ingestion, suspension in CMC, FIG. 1. As for the experimental part:
54 mice are randomly divided into 9 groups of 6 animals and receive a dose of ADA by force feeding.
The concentration of biurea, the only catabolite of ADA “in vivo” (Concise International Chemical Assessment Document 16; World Health Organisation: Geneva, 1999) in the blood serum (μg/ml) was determined 30 minutes after ingestion by means of a high-pressure liquid chromatography method. This concentration represents a measurement of the bioavailability of ADA in the organism.
Analysis of the plasma samples was carried out by high-pressure liquid chromatography, followed by mass spectrometry, in accordance with the standards of the “Food and Drug (USA) Administration May 2001: Guidance for Industry: Bioanalytical method validation” (lowest quantification limit (LOQ) of 0.20 μg/ml and linear method up to 20 μg/ml).

The test system of another data set is healthy male volunteers. Put plainly: Examination of toxicity on human beings (urine examination by flow cytometry). It is filed as in vivo. To be noted: capsules, seven days, up to 6 g per day, limit of detection 2 μm. As for the experimental part:
“ESB free” gelatine-coated capsules containing a composition as described in example 4 were administered for seven days to healthy male volunteers at a dose ranging up to 6 g per day (single dose of 150 to 6,000 mg and repeated doses of 300 to 2,400 mg).
A urine examination was carried out using flow cytometry (limit of detection 2 μm).

The subject of a further data set is dogs. Kind of data set: 28-day oral toxicity in dogs. The class given is in vivo. As for the experimental part: as §1
On the dogs that received 400 mg/kg/day for 28 days, a histological examination was also carried out with dissection of the kidneys.

For data set [3], the system named is reactivity of the respiratory tracts. Put plainly: Reactivity of respiratory tracts in ovalbumin-sensitised rats. The class given is in vivo. To be noted: sensitised Brown Norway rats, force feeding twice a day 125 and 250 mg/kg, day -1 to day 20, all doses of methacholine. The procedure: At day 0, Brown Norway rats (200-250 g) were sensitised by intraperitoneal administration (1 ml/rat) of ovalbumin (1 mg/ml) mixed with aluminium hydroxide (100 mg/ml).
In this experiment, micronised ADA according to the invention is administered to rats by force feeding in the form of a suspension in poloxamer 188. The administration takes place twice a day in doses of 125 and 250 mg/kg, from day −1 up to day 20.

For data set [4] the following is noted: water and organic solvents; cited from earlier work.
A short description of data set [5]: Particle size analysis by laser diffraction during micronisation. The class given is physicochemical. As for the experimental part:
A thorough fragmentation of dry powder forming each of these batches is carried out, feeding them at a rate of 4 kg/h into a known dry powder disintegration device, for example into a device of the Alpine® 100 AFG Jet Mill model from Hosokawa Micron Group. This device comprises a cylindrical milling chamber with a conical bottom which is made of stainless steel coated with an elastomer. This chamber has a diameter of 100 mm and a volume of 800 cm^3. The particles to disintegrate are introduced into the chamber by an endless screw. Then the particles are projected against each other by compressed air jets from 3 air nozzles having a diameter of 2 mm which run into each other at the same point. The obtained air stream carries then the disintegrated particles at 50 bar towards a turbo-selecting device which is integrated within the milling chamber. In this example this turbo-selecting device has the shape of a squirrel-cage which has adjustable rotational speed of 5000 to 16000 rpm.
This device allows the exit of the particles smaller than a determined size, in this case <5 μm, and repulses into the milling chamber the particles having a greater size. The fine particles (searched size) which leave the milling chamber are collected for example by means of a cyclone.
The sizes of the particles were then analysed. In order to analyse the diameters use was made of a RODOS & RODOS/M dry powder dispersion device (from Sympatec GmbH) and a VIBRI vibratory powder feed tool (from Sympatec GmbH) with a HELOS laser diffraction system (from Sympatec GmbH). The powders analysed were fed at a rate of 35% of the maximum rate. On passing through an air jet, the powder is subjected to shearing forces of around 3.0 bar. Using a vacuum (90-100 mbar) they are then sucked into the path of a HE/NE laser beam. The diffraction of the laser beam by the particles creates a model which is measured and converted by computer into a particle size distribution using software associated with the HELOS system.

The conditions of data set [6]: oral administration; cited from earlier work.
Setting [7] is: Test date Aug. 7, 2005, 3 additional months at 25° C./60% humidity.
The mark [8] stands for this setting: Test date Jun. 20, 2004, after manufacture.
Setting [9] is: Test date May 7, 2005, capsules stored 11 months in refrigerator at 8° C.
Where [10] appears, read: End of micronisation, listed as C.
Setting [11] is: Middle of micronisation, listed as C.
The mark [12] stands for this setting: Start of micronisation, listed as C.
[13] abbreviates: End of micronisation, listed as B.
[14] abbreviates: Middle of micronisation, listed as B.
Setting [15] is: Start of micronisation, listed as B.
[16] abbreviates: End of micronisation, listed as A.
Setting [17] is: Middle of micronisation, listed as A.
The mark [18] stands for this setting: Start of micronisation, listed as A.

With `NC(=O)N=NC(N)=O` [azodicarbonamide], the “Stability of particle size on storage” value in data set [1] (no additive, 11 months 8° C. plus 3 months 25° C./60% humidity, FIG. 3) was “stability of ADA according to the invention clearly results”. Besides, the Adverse effect result with rats was “In neither of the two tests was any adverse effect observed”; in the data set on dogs (oral, daily 400, 100 and 25 mg/kg for 28 days), “In neither of the two tests was any adverse effect observed”. The entries for the “Bioavailability of ADA in the blood (concentration of biurea)” value in [2] and in [2] (listed as ADA according to the invention) were “appreciably better than the non-micronised ADA” and “even better bioavailability than completely dissolved ADA”, respectively. The “Kidney stones or cylinders in urine” value with healthy male volunteers is “No kidney stones or cylinders were observed”. For the same compound, the “Biurea crystals in kidneys (histological examination)” value in the data set on dogs (400 mg/kg/day for 28 days) is recorded as “no biurea crystals were observed”.

For `NC(=O)N=NC(N)=O` [ADA, Azodicarbonamide], in data set [3], the “Inhibition of the increase in reactivity of the respiratory tracts caused by antigen attack” value is recorded as “significant inhibition”. Moreover, the Solubility result in data set [4] is given as “not very soluble in water or in the majority of organic solvents”.

In the case of `NC(=O)N=NC(N)=O` [Batch K9J, azodicarbonamide], the “Particle sizes D10” value in [1] (setting [7]) was determined as 0.76 μm; in [1] (setting [8]), 0.56 μm; in data set [1] (setting [9]), 0.72 μm. In addition, the “Particle sizes D50” value in data set [1] (setting [7]) amounted to 2.05 μm; in data set [1] (setting [8]) it was 1.51 μm; in data set [1] (setting [9]), 1.86 μm.

In the case of `NC(=O)N=NC(N)=O` [Batch C, azodicarbonamide], in data set [5] (setting [10]), the “Granulometry of particles during micronisation d10” value was determined as 0.57 μm, the “Granulometry of particles during micronisation d50” value was determined as 1.58 μm and the “Granulometry of particles during micronisation d90” value came out at 3.85 μm. Besides, in data set [5] (setting [11]), the “Granulometry of particles during micronisation d10” value is given as 0.57 μm, the “Granulometry of particles during micronisation d50” value turned out to be 1.56 μm and the “Granulometry of particles during micronisation d90” value amounted to 3.69 μm. Moreover, in data set [5] (setting [12]), the “Granulometry of particles during micronisation d10” value is on record as 0.56 μm, the “Granulometry of particles during micronisation d50” value is 1.47 μm and the “Granulometry of particles during micronisation d90” value is 3.43 μm.

As for `NC(=O)N=NC(N)=O` [Batch K9K, azodicarbonamide], the “Particle sizes D10” value was found to be 0.74 μm in [1] (setting [7]), 0.59 μm in [1] (setting [8]) and 0.69 μm in [1] (setting [9]). For the same compound, the “Particle sizes D50” value is recorded as 1.93 μm in data set [1] (setting [7]), 1.56 μm in data set [1] (setting [8]) and 1.74 μm in [1] (setting [9]).

For the compound `NC(=O)N=NC(N)=O` [ADA as commercially available, azodicarbonamide], the “Formation of biurea crystals in the urine” value in data set [6] was “the formation of biurea crystals is quickly observed in the urine”.

Consider `NC(=O)N=NC(N)=O` [Batch B, azodicarbonamide], for which, in data set [5] (setting [13]), the “Granulometry of particles during micronisation d10” value amounted to 0.59 μm, the “Granulometry of particles during micronisation d50” value is listed as 1.56 μm and the “Granulometry of particles during micronisation d90” value is 3.68 μm. In [5] (setting [14]), the “Granulometry of particles during micronisation d10” value amounted to 0.58 μm, the “Granulometry of particles during micronisation d50” value is 1.59 μm and the “Granulometry of particles during micronisation d90” value turned out to be 3.88 μm. In data set [5] (setting [15]), the “Granulometry of particles during micronisation d10” value is 0.58 μm, the “Granulometry of particles during micronisation d50” value turned out to be 1.58 μm and the “Granulometry of particles during micronisation d90” value worked out at 3.71 μm.

`NC(=O)N=NC(N)=O` [Batch A, azodicarbonamide]: the “Granulometry of particles during micronisation d10” value in [5] (setting [16]) worked out at 0.56 μm; in data set [5] (setting [17]) it was 0.56 μm; in data set [5] (setting [18]), 0.58 μm. The “Granulometry of particles during micronisation d50” value in data set [5] (setting [16]) was found to be 1.51 μm; in [5] (setting [17]) it was 1.53 μm; in data set [5] (setting [18]) it was 1.61 μm. For the same compound, the “Granulometry of particles during micronisation d90” value in data set [5] (setting [16]) came to 3.50 μm; in [5] (setting [17]), 3.55 μm; in data set [5] (setting [18]) it was 3.78 μm.

Consider `NC(=O)N=NC(N)=O` [Batch K9L, azodicarbonamide], for which the “Particle sizes D10” value turned out to be 0.76 μm in data set [1] (setting [7]), 0.57 μm in [1] (setting [8]) and 0.72 μm in data set [1] (setting [9]). Moreover, the “Particle sizes D50” value was 2.08 μm in data set [1] (setting [7]), 1.58 μm in data set [1] (setting [8]) and 1.88 μm in data set [1] (setting [9]).

Values taken from patent publication US20070110815A1, “Micronised azodicarbonamide, and the preparation and use thereof” (priority 2005, published 2007).
